In brackets after ≈: the same amount, converted by molar mass. Like-named read-outs stand apart in the source and are kept apart here.
Assays:
HIV protease = target: T1, HIV protease (Human immunodeficiency virus type 1 group M subtype B, UniProt P04585); assay: biochemical; design: species or system HIV-1
T1 construct: plasmid containing HIV protease under the control of an inducible T7 promoter; made in house; host or cells: E. coli (inclusion bodies, T7 promoter)
Experimental: HIV Protease Inhibition Assay—Spectroscopic Method
Inclusion bodies were solubilized in 8M urea, 50 mM tris pH 8.0. Protease activity was recovered by dilution 20-fold into buffer containing 50 mM sodium acetate pH 5.5, 1 mM EDTA, 10% glycerol and 5% ethylene glycol. Enzyme was used at a final concentration of 1.0-10 ug/ml.
Stock solutions of 10 mM were prepared in DMSO.
All further dilutions were done in DMSO.

HIV-1 (RF) in MT-2 cells = assay: microbe, parasite or virus in culture; assay type: cell-based; conditions: read-out: IC90
Procedure, shortened: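 Read-out: gag and pol viral RNA captured by 5′-biotinylated oligonucleotides on streptavidin-coated wells, detected with alkaline phosphatase-linked reporter oligonucleotides, calibrated against BH10 in vitro transcripts. Virus stocks (RF, MN, IIIB) come from H9 cultures; MT-2 host cells kept in RPMI 1640, 5% FCS.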

[1] = second table headed Table 2A, read-out: Ki
[2] = Human immunodeficiency virus 1, MT2, Table 1c
[3] = Human immunodeficiency virus 1, MT2, Table 2A
[4] = Human immunodeficiency virus 1, MT2, second table headed Table 2A
[5] = Human immunodeficiency virus 1, MT2, Table 1e
[6] = Human immunodeficiency virus 1, MT2, 24 h, Table 1d, upper part
[7] = Table 1d, upper part, read-out: Ki

SMILES	melting point [°C]	Ki (HIV protease; Ki) [nM]	IC90 (HIV-1 (RF) in MT-2 cells; [2]) [µg/mL]	also measured
O=C1N(Cc2cc(F)cc(C(F)(F)F)c2)C(Cc2ccccc2)C(O)C(O)C(Cc2ccccc2)N1Cc1cc(F)cc(C(F)(F)F)c1 (centres unmarked) [Example 2M]	162.3	–	–	Ki (HIV protease; Table 2A, read-out: Ki): 10 to 1000 nM; Ki (HIV protease; [1]): 10 to 1000 nM
CCCCCN1C(=O)N(CCCCC)C(Cc2ccccc2)C(O)C(O)C1Cc1ccccc1 (centres unmarked) [Example 1AK]	125 to 127	< 10	–	–
N#CN=C1N(CC2CCCCC2)C(Cc2ccccc2)C(O)C(O)C(Cc2ccccc2)N1CC1CCCCC1 (centres unmarked) [Example 1CJ]	96.4	< 10	< 10	–
CCCN1C(=NC#N)N(CCC)C(Cc2ccccc2)C(O)C(O)C1Cc1ccccc1 (centres unmarked) [Example 1CL]	216.6	10 to 1000	< 10	–
O=C1N(Cc2ccc(F)c(C(F)(F)F)c2)C(Cc2ccccc2)C(O)C(O)C(Cc2ccccc2)N1Cc1ccc(F)c(C(F)(F)F)c1 (centres unmarked) [Example 2K]	167.2	–	–	IC90 (HIV-1 (RF) in MT-2 cells; [3]): < 10 µg/mL; IC90 (HIV-1 (RF) in MT-2 cells; [4]): < 10 µg/mL; Ki (HIV protease; Table 2A, read-out: Ki): 10 to 1000 nM; Ki (HIV protease; [1]): 10 to 1000 nM
O=C1N(CCN2CCOCC2)C(Cc2ccccc2)C(O)C(O)C(Cc2ccccc2)N1CCN1CCOCC1 (centres unmarked) [Example 1AA]	70 to 75	–	–	Ki (HIV protease; Table 1a, read-out: Ki): > 1000 nM
N#CN=C1N(CC2CCCC2)C(Cc2ccccc2)C(O)C(O)C(Cc2ccccc2)N1CC1CCCC1 (centres unmarked) [Example 1BV]	99.7	< 10	< 10	–
N#CN=C1N(Cc2ccc(O)cc2)C(Cc2ccccc2)C(O)C(O)C(Cc2ccccc2)N1Cc1ccc(O)cc1 (centres unmarked) [Example 1BU]	103.3	< 10	< 10	–
N#CN=C1N(Cc2ccccc2)C(Cc2ccccc2)C(O)C(O)C(Cc2ccccc2)N1Cc1ccccc1 (centres unmarked) [Example 1BZ]	94	10 to 1000	< 10	–
N#CN=C1N(CC2CCC2)C(Cc2ccccc2)C(O)C(O)C(Cc2ccccc2)N1CC1CCC1 (centres unmarked) [Example 1CK]	235.5	< 10	< 10	–
CCN1C(=O)N(CC)C(Cc2ccccc2)C(O)C(O)C1Cc1ccccc1 (centres unmarked) [Example 1AD]	214 to 215	–	–	Ki (HIV protease; Table 1a, read-out: Ki): 10 to 1000 nM
CCCCCCCN1C(=O)N(CCCCCCC)C(Cc2ccccc2)C(O)C(O)C1Cc1ccccc1 (centres unmarked) [Example 1AB]	100 to 101	–	–	Ki (HIV protease; Table 1a, read-out: Ki): 10 to 1000 nM
CN1C(=O)N(C)C(Cc2ccccc2)C(O)C(O)C1Cc1ccccc1 (centres unmarked) [Example 1W]	170 to 174	> 1000	–	–
O=C1N(Cc2cccc(OC(F)(F)F)c2)C(Cc2ccccc2)C(O)C(O)C(Cc2ccccc2)N1Cc1cccc(OC(F)(F)F)c1 (centres unmarked) [Example 2J]	128.3	–	–	IC90 (HIV-1 (RF) in MT-2 cells; [3]): < 10 µg/mL; IC90 (HIV-1 (RF) in MT-2 cells; [4]): < 10 µg/mL; Ki (HIV protease; Table 2A, read-out: Ki): 10 to 1000 nM; Ki (HIV protease; [1]): 10 to 1000 nM
N#CN=C1N(Cc2cccc(N)c2)C(Cc2ccccc2)C(O)C(O)C(Cc2ccccc2)N1Cc1cccc(N)c1 (centres unmarked) [Example 1CF]	114.4	< 10	< 10	–
C=CCN1C(=O)N(CC=C)[C@H](Cc2ccccc2)[C@H](O)C1C(F)Cc1ccccc1 (some centres unmarked) [Example 7W]	–	–	–	IC90 (HIV-1 (RF) in MT-2 cells; [5]): 10 to 100 µg/mL (≈ 24.5 to 245 µM); Ki (HIV protease; Table 1e, read-out: Ki): 10 to 1000 nM
CC(C)CCCN1C(=O)N(CCCC(C)C)C(Cc2ccccc2)C(O)C(O)C1Cc1ccccc1 (centres unmarked) [Example 1AM]	120 to 122	< 10	–	–
CC(=O)c1cccc(CN2C(=O)N(Cc3cccc(C(C)=O)c3)[C@H](Cc3ccccc3)[C@H](O)[C@H]2CCc2ccccc2)c1 [Example 8P]	–	< 10	–	IC90 (HIV-1 (RF) in MT-2 cells; [5]): < 10 µg/mL
CC(C)=CCN1C(=O)N(CC=C(C)C)C(Cc2ccccc2)C(O)C(O)C1Cc1ccccc1 (centres unmarked) [Example 2A]	165.1	–	–	IC90 (HIV-1 (RF) in MT-2 cells; [3]): < 10 µg/mL; IC90 (HIV-1 (RF) in MT-2 cells; [4]): < 10 µg/mL; Ki (HIV protease; Table 2A, read-out: Ki): < 10 nM; Ki (HIV protease; [1]): < 10 nM
C=C(C)CN1C(=O)N(CC(=C)C)C(Cc2ccccc2)C(O)C(O)C1Cc1ccccc1 (centres unmarked) [Example 1AJ]	205 to 207	–	–	Ki (HIV protease; Table 1a, read-out: Ki): < 10 nM
C=CCN1C(=O)N(CC=C)C(Cc2ccccc2)C2OS(=O)OC2C1Cc1ccccc1 (centres unmarked) [Example 7C]	–	–	–	IC90 (HIV-1 (RF) in MT-2 cells; [6]): < 10 µg/mL; Ki (HIV protease; [7]): < 10 nM
O=C1N(Cc2ccc3ccccc3c2)C(Cc2ccccc2)C2OC(=S)OC2C(Cc2ccccc2)N1Cc1ccc2ccccc2c1 (centres unmarked) [Example 7N]	–	–	–	IC90 (HIV-1 (RF) in MT-2 cells; [6]): > 100 µg/mL; Ki (HIV protease; [7]): > 1000 nM
O=C1N(Cc2ccccc2)C(Cc2ccccc2)C(O)C(O)C(Cc2ccccc2)N1CC1CC1 (centres unmarked) [Example 2F]	–	–	–	IC90 (HIV-1 (RF) in MT-2 cells; [3]): < 10 µg/mL; IC90 (HIV-1 (RF) in MT-2 cells; [4]): < 10 µg/mL; Ki (HIV protease; Table 2A, read-out: Ki): < 10 nM; Ki (HIV protease; [1]): < 10 nM
